This passage reports EC50 results from patent US11518760B2 (Liverpool School of Tropical Medicine, priority 2017, dated 2022).

Where only a bound is given, the exact number is not on record here.

In the assay the test system is C6/36 Aedes albopictus cell line infected with Wolbachia pipientis (Wolbachia strain wAlbB). Kind of assay: In vitro insect cell line assay (anti-Wolbachia screen, SYTO 11 high content imaging). Conditions: 168 h; C6/36 Aedes albopictus cells infected with Wolbachia pipientis wAlbB, 7 days incubation, SYTO 11 imaging; read-out: In vitro anti-Wolbachia activity. It is filed as cell-based. In a few lines:
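Wolbachia wAlbB-infected C6/36 Aedes albopictus cells were exposed to compounds at a final 5 μM for 7 days at 26 °C, with DMSO-medium wells as untreated controls. Cells were then stained with SYTO 11 for 15 min, imaged by high-content microscopy and scored by texture analysis.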
On to `CC1COCCN1c1nc(NCc2cccnc2C(F)(F)F)c2cncnc2n1` (stereo not drawn) [Example 306, 2-(3-methylmorpholino)-N-((2-(trifluoromethyl)pyridin-3-yl)methyl)pyrimido[4,5-d]pyrimidin-4-amine], for which the EC50 was in the range of 1000 to 100000 nM. The figure for `FC(F)(F)c1ncccc1CNc1nc(N2CCC(Cl)CC2)nc2ncccc12` [Example 199, 2-(4-chloropiperidin-1-yl)-N-((2-(trifluoromethyl)pyridin-3-yl)methyl)pyrido[2,3-d]pyrimidin-4-amine] is 1 to 10 nM; for `FC1(F)CCN(c2nc(N3CCC3c3cccnc3C(F)(F)F)c3cccnc3n2)C1` (stereo not drawn) [Example 220, 2-(3,3-difluoropyrrolidin-1-yl)-4-(2-(2-(trifluoromethyl)pyridin-3-yl)azetidin-1-yl)pyrido[2,3-d]pyrimidine] it is 0.01 to 1 nM; for `FC(F)(F)c1cnn(-c2nc(NCc3cccnc3C(F)(F)F)c3cccnc3n2)c1` [Example 203, 2-(4-(trifluoromethyl)-1H-pyrazol-1-yl)-N-((2-(trifluoromethyl)pyridin-3-yl)methyl)pyrido[2,3-d]pyrimidin-4-amine] it is 100 to 1000 nM. Take `CC1(C)COCCN1c1nc(NCc2cccnc2C(F)(F)F)c2cccnc2n1` [Example 240, 2-(3,3-dimethylmorpholino)-N-((2-(trifluoromethyl)pyridin-3-yl)methyl)pyrido[2,3-d]pyrimidin-4-amine]: the EC50 lay in the range of 0.01 to 1 nM. Turning to `CC(C)N(C)c1nc(NCc2cccnc2C(F)(F)F)c2cccnc2n1` [Example 162, N^2-isopropyl-N^2-methyl-N^4-((2-(trifluoromethyl)pyridin-3-yl)methyl)pyrido[2,3-d]pyrimidine-2,4-diamine], the EC50 was in the range of 0.01 to 1 nM.

In the case of `FC1(F)CCN(c2nc(N3CCC3c3ccccc3C(F)(F)F)c3cccnc3n2)C1` (stereo not drawn) [Example 215, 2-(3,3-difluoropyrrolidin-1-yl)-4-(2-(2-(trifluoromethyl)phenyl)azetidin-1-yl)pyrido(2,3-d]pyrimidine], the EC50 was in the range of 10 to 100 nM. On to `FC(F)(F)c1ncccc1CNc1nc(N2CCCC(C(F)(F)F)C2)nc2ncccc12` (stereo not drawn) [Example 249, 2-(3-(trifluoromethyl)piperidin-1-yl)-N-((2-(trifluoromethyl)pyridin-3-yl)methyl)pyrido[2,3-d]pyrimidin-4-amine], for which the EC50 is less than 0.01 nM. The result for `FC(F)(F)c1ncccc1CNc1nc(N2CCC(C(F)(F)F)CC2)nc2ncccc12` [Example 235, 2-(4-(trifluoromethyl)piperidin-1-yl)-N-((2-(trifluoromethyl)pyridin-3-yl)methyl)pyrido[2,3-d]pyrimidin-4-amine] reads 0.01 to 1 nM; that for `CN(Cc1ccccc1C(F)(F)F)c1nc(C(F)(F)F)nc2ccsc12` [Example 62, N-methyl-2-(trifluoromethyl)-N-(2-(trifluoromethyl)benzyl)thieno[3,2-d]pyrimidin-4-amine], 10 to 100 nM; that for `CNCc1nc(NCc2ccccc2C(F)(F)F)c2sccc2n1` [Example 154, 2-((methylamino)methyl)-N-(2-(trifluoromethyl)benzyl)thieno[3,2-d]pyrimidin-4-amine], 1000 to 100000 nM. For the compound `FC(F)(F)c1ncccc1CNc1nc(N2CCC(C(F)(F)F)C2)nc2ncccc12` (stereo not drawn) [Example 236, N-((2-(trifluoromethyl)pyridin-3-yl)methyl)-2-(3-(trifluoromethyl)pyrrolidin-1-yl)pyrido[2,3-d]pyrimidin-4-amine], the EC50 is less than 0.01 nM.

In the case of `COc1cccc(CNc2nc(NC(C)C)nc3ccsc23)c1` [Example 16, N^2-isopropyl-N^4-(3-methoxybenzyl)thieno[3,2-d]pyrimidine-2,4-diamine], the EC50 lay in the range of 1000 to 100000 nM. As to `CC(Nc1ncnc2cc(Cl)sc12)c1ccccc1C(F)(F)F` (stereo not drawn) [Example 101], the EC50 lay in the range of 1000 to 100000 nM. For the compound `FC(F)(F)c1ccccc1CNc1nc(NC2CC2)nc2ncccc12` [Example 156, N^2-cyclopropyl-N^4-(2-(trifluoromethyl)benzyl)pyrido[2,3-d]pyrimidine-2,4-diamine], the EC50 fell in the range of 1 to 10 nM. With `C[C@@H]1COCCN1c1nc(N2CCC2c2cccnc2C(F)(F)F)c2cccnc2n1` (stereo partly drawn) [Example 288, (3R)-3-methyl-4-(4-(2-(2-(trifluoromethyl)pyridin-3-yl)azetidin-1-yl)pyrido[2,3-d]pyrimidin-2-yl)morpholine], the EC50 fell in the range of 1 to 10 nM. The result for `CC1(C)CCN1c1nc(NCc2cccnc2C(F)(F)F)c2cccnc2n1` [Example 173, 2-(2,2-dimethylazetidin-1-yl)-N-((2-(trifluoromethyl)pyridin-3-yl)methyl)pyrido[2,3-d]pyrimidin-4-amine] reads 1 to 10 nM; that for `O=C(Nc1ncnc2ccsc12)c1ccccc1C(F)(F)F` [Example 37, N-(thieno[3,2-d]pyrimidin-4-yl)-2-(trifluoromethyl)benzamide], 1000 to 100000 nM; that for `FC1(F)CC2(CCN(c3nc(NCc4cccnc4C(F)(F)F)c4cccnc4n3)CC2)C1` [Example 252, 2-(2,2-difluoro-7-azaspiro[3.5]nonan-7-yl)-N-((2-(trifluoromethyl)pyridin-3-yl)methyl)pyrido[2,3-d]pyrimidin-4-amine], 0.01 to 1 nM. `COc1ccc(CNc2nc(NC(C)C)nc3ccccc23)cc1OC` [Example 140, N^4-(3,4-dimethoxybenzyl)-N^2-isopropylquinazoline-2,4-diamine]: the EC50 was in the range of 100 to 1000 nM. Consider `FC(F)(F)c1ccccc1CNc1nc(NC2CC2)nc2ccsc12` [Example 43, N^2-cyclopropyl-N^4-(2-(trifluoromethyl)benzyl)thieno[3,2-d]pyrimidine-2,4-diamine], for which the EC50 lay within 100 to 1000 nM. For `CC(Nc1ncnc2ccsc12)c1ccccc1Cl` (stereo not drawn) [Example 38, N-(1-(2-chlorophenyl)ethyl)thieno[3,2-d]pyrimidin-4-amine], the EC50 lay within 1000 to 100000 nM. The figure for `FC(F)(F)c1ccc(CNc2nc(Cl)nc3ccccc23)cn1` [Example 115] is 1000 to 100000 nM; for `CC(C)Nc1nc(NC2(c3ccccc3Cl)CC2)c2sccc2n1` [Example 48, N^4-(1-(2-chlorophenyl)cyclopropyl)-N^2-isopropylthieno[3,2-d]pyrimidine-2,4-diamine] it is 100 to 1000 nM; for `CC(C)Nc1cc(NCc2cccnc2C(F)(F)F)c2cccnc2n1` [Example 165, N^2-isopropyl-N^4-((2-(trifluoromethyl)pyridin-3-yl)methyl)-1,8-naphthyridine-2,4-diamine] it is 10 to 100 nM. The result for `FC(F)(F)OC1CCN(c2nc(NCc3cccnc3C(F)(F)F)c3cccnc3n2)CC1` [Example 273, 2-(4-(trifluoromethoxy)piperidin-1-yl)-N-((2-(trifluoromethyl)pyridin-3-yl)methyl)pyrido[2,3-d]pyrimidin-4-amine] reads less than 0.01 nM. In the case of `CC(C)Nc1nc(NCc2ccc(Cl)cc2)c2ccccc2n1` [Example 136, N^4-(4-chlorobenzyl)-N^2-isopropylquinazoline-2,4-diamine], the EC50 was in the range of 1000 to 100000 nM.

Regarding `FC(F)(F)c1ccccc1CNc1nc(N2CCC(C(F)(F)F)C2)nc2ncccc12` (stereo not drawn) [Example 266, N-(2-(trifluoromethyl)benzyl)-2-(3-(trifluoromethyl)pyrrolidin-1-yl)pyrido[2,3-d]pyrimidin-4-amine], the EC50 was 1 to 10 nM.

`COc1cccc(CNc2ncnc3ccsc23)c1C(F)(F)F` [Example 51, N-(3-methoxy-2-(trifluoromethyl)benzyl)thieno[3,2-d]pyrimidin-4-amine]: the EC50 lay within 10 to 100 nM.

As to `FC(F)(F)c1cccc(CNc2ncnc3ccsc23)c1` [Example 81], the EC50 fell in the range of 1000 to 100000 nM. As to `CN1CC(Nc2nc(NCc3cccnc3C(F)(F)F)c3cccnc3n2)C1` [Example 148, N^2-(1-methylazetidin-3-yl)-N^4-((2-(trifluoromethyl)pyridin-3-yl)methyl)pyrido[2,3-d]pyrimidine-2,4-diamine], the EC50 was in the range of 1000 to 100000 nM. On to `CC(C)Nc1nc(NCc2ccc(F)cc2)c2ccccc2n1` [Example 134, N^4-(4-fluorobenzyl)-N^2-isopropylquinazoline-2,4-diamine], for which the EC50 lay in the range of 1000 to 100000 nM.

On to `CC(C)Nc1nc(NCc2cccc(Cl)c2)c2sccc2n1` [Example 18, N^4-(3-chlorobenzyl)-N^2-isopropyithieno[3,2-d]pyrimidine-2,4-diamine], for which the EC50 lay in the range of 1000 to 100000 nM. The figure for `FC(F)(F)c1ncccc1C1CCN1c1nc(N2CC(C(F)(F)F)C2)nc2ncccc12` (stereo not drawn) [Example 221, 2-(3-(trifluoromethyl)azetidin-1-yl)-4-(2-(2-(trifluoromethyl)pyridin-3-yl)azetidin-1-yl)pyrido[2,3-d]pyrimidine] is 1 to 10 nM; for `COc1ccccc1CNc1nc(NC(C)C)nc2ccccc12` [Example 139, N^2-isopropyl-N^4-(2-methoxybenzyl)quinazoline-2,4-diamine] it is 100 to 1000 nM. The result for `FC1(F)CN(c2nc(NCc3cccnc3C(F)(F)F)c3cccnc3n2)C1` [Example 201, 2-(3,3-difluoroazetidin-1-yl)-N-((2-(trifluoromethyl)pyridin-3-yl)methyl)pyrido[2,3-d]pyrimidin-4-amine] reads 10 to 100 nM.

Regarding `FC1(F)CN(c2nc(NCc3cccnc3C(F)(F)F)c3cccnc3n2)CC(F)(F)O1` [Example 295, 2-(2,2,6,6-tetrafluoromorpholino)-N-((2-(trifluoromethyl)pyridin-3-yl)methyl)pyrido[2,3-d]pyrimidin-4-amine], the EC50 was 10 to 100 nM. With `FC(F)(F)c1ncccc1CNc1nc(N2CCC(Cl)C2)nc2ncccc12` (stereo not drawn) [Example 265, 2-(3-chloropyrrolidin-1-yl)-N-((2-(trifluoromethyl)pyridin-3-yl)methyl)pyrido[2,3-d]pyrimidin-4-amine], the EC50 was less than 0.01 nM.

Turning to `O=C1CCCN1CCCNc1ncnc2ccsc12` [Example 34, 1-(3-(thieno[3,2-d]pyrimidin-4-ylamino)propyl)pyrrolidin-2-one], the EC50 fell in the range of 1000 to 100000 nM.
